Laboratory results published in patent publication US10660959B2, “Formulations of a PI3K/mTOR-inhibitor for intravenous administration” (Pfizer Inc., priority 2014, dated 2020).
Where “and” joins values, the source holds several entries; their conditions need not be identical. Equal entries are not always repeated.

Legend:
Format in all cases: physicochemical
[1] = Visual observation of solution clarity (light box per European Pharmacopoeia Method 2.9.20, black and white background, Tyndall beam)
Source text: A clear solution is defined as a visually clear solution essentially free from any visible particulates that can be observed on a visual inspection. Generally, if any particulate matter is observed, the formulation is not suitable for intravenous administration and should not be utilised as occlusion of blood vessels may occur. Accordingly, in view of the qualitative nature of the visual test, the term “essentially free from any visible particulates” is usually applied when no visible particulate matter is observed.
The visual inspection can be conducted in accordance with the method defined in European Pharmacopoeia Method 2.9.20 entitled “Particulate contamination: visible particles”. […]
By this method the solution in the vial was visually inspected in a Verivide DCAC60 (trade mark) light cabinet using a light meter reading of 3250 lux against a matt black panel and a white panel.
At the end of the 5 day period the pH of each sample was measured and a visual observation of each sample was made using a light box as described in European Pharmacopoeia Method 2.9.20 (above), inspecting the samples against a black and a white background. […]
These samples were visually assessed made using a light box as described in European Pharmacopoeia Method 2.9.20 (above), inspecting the samples against a black and a white background. […] The pH was also measured. […]

[2] = pH measurement of aqueous formulation samples; details: for pH after dilution: roller bed overnight; for pH Check after 6 Days / pH Check after 48 hours: Investigation 5; for pH: Investigation 6, 15 hours
Protocol: (§1) At the end of the 5 day period the pH of each sample was measured and a visual observation of each sample was made using a light box as described in European Pharmacopoeia Method 2.9.20 (above), inspecting the samples against a black and a white background. The sample was also tested by illumination using a narrow (Tyndall) beam light source and then visually inspected from a direction perpendicular to the light beam in order to identify undissolved solid particles.
as §1, with “specified rolling” for “5 day”
as §1, with “These samples were visually assessed” for “At the end of the 5 day period the pH of each sample was measured and a visual observation of each sample was”, “particles. The pH was also measured.” for “particles.”
as §1, with “These samples were visually assessed” for “At the end of the 5 day period the pH of each sample was measured and a visual observation of each sample was made”, “particles. The pH was also measured.” for “particles.”
The diluted samples were placed on a roller bed overnight in order to reach equilibrium. The pH was also measured.
These samples were visually assessed using a light box as described in European Pharmacopoeia method 2.9.20 (above), inspecting the samples against a black and a white background. The sample was also tested by illumination using a narrow (Tyndall) beam light source and then visually inspected from a direction perpendicular to the light beam in order to identify undissolved solid particles. […] The pH was also measured.

[3] = Chemical and physical stability of crystalline free base on storage; details: crystalline form, 25° C. and 60% Relative Humidity
[4] = Water solubility of free base; details: for aqueous solution formulation at therapeutic dosage levels
[5] = Investigation 4, 3 mg/mL with 6.8 mole equivalents orthophosphoric acid (33.3 mM), roller bed room temperature ca. 19 hours, N = 1-3

Visual assessment [1, 5]: Clear
Visual assessment ([1]; Investigation 5, 3, 4 and 5 mg/mL in 33.3 mM acetic acid buffer pH 3.35, roller bed room temperature, 24 hour, 48 hour, 72 hour and 6 day periods): does not produce a clear solution
Final pH [2, 5]: 2.15 and 2.17
pH after dilution ([2]; Investigation 4, orthophosphoric acid samples diluted to 0.05 mg/mL): 3.47 and 3.48 and 3.49
pH after dilution ([2]; Investigation 4, orthophosphoric acid samples diluted to 0.1 mg/mL): 3.21 and 3.20
pH after dilution ([2]; Investigation 4, orthophosphoric acid samples diluted to 0.5 mg/mL): 2.64 and 2.63
pH Check after 6 Days ([2]; 3 mg/mL in 33.3 mM acetic acid): 3.99 and 3.95 and 3.96
pH Check after 48 hours ([2]; 3 mg/mL in 33.3 mM acetic acid): 3.89 and 3.90
pH Check after 6 Days ([2]; 4 mg/mL in 33.3 mM acetic acid): 4.03 and 4.04
pH Check after 48 hours ([2]; 4 mg/mL in 33.3 mM acetic acid): 3.94 and 3.95
pH Check after 6 Days ([2]; 5 mg/mL in 33.3 mM acetic acid): 4.18 and 4.19
pH Check after 48 hours ([2]; 5 mg/mL in 33.3 mM acetic acid): 3.99 and 4.00
pH ([2]; 3 mg/mL, ca. 6.8 mole equivalents orthophosphoric acid): 2.02 and 2.03 and 2.05
pH ([2]; 3.5 mg/mL, ca. 5.9 mole equivalents orthophosphoric acid): 2.09 and 2.07
chemically and physically stable (duration) [3]: up to 3 years
water solubility [4]: insufficiently water soluble
Compound: CN(C)C1CCN(C(=O)c2ccc(NC(=O)Nc3ccc(-c4nc(N5CCOCC5)nc(N5CCOCC5)n4)cc3)cc2)CC1 [1-(4-{[4-(Dimethylamino)piperidin-1-yl]carbonyl}phenyl)-3-[4-(4,6-dimorpholin-4-yl-1,3,5-triazin-2-yl)phenyl]urea]
